Activity calls are given as the source filed them.
Experiments:
Streptococcus = assay: Group A Streptococcus viability loss, dose response, counter-screen for streptokinase expression inhibitor project, luminescence, BacTiterGlo (AID 1915); assay type: functional, organism-based;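 also: potency for reduction of bacterial viability or growth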
Protein RecA = target: T1, Protein RecA (Mycobacterium tuberculosis, UniProt P9WHJ3); assay: Fluorescence Cell-Free Homogeneous Dose Retest to Identify Inhibitors of RecA-Intein Splicing Activity. [Related pubchem assays (depositor defined):AID2097, AID2223, AID489010, AID492950]; assay type: functional
T1 sequence (P9WHJ3 whole entry): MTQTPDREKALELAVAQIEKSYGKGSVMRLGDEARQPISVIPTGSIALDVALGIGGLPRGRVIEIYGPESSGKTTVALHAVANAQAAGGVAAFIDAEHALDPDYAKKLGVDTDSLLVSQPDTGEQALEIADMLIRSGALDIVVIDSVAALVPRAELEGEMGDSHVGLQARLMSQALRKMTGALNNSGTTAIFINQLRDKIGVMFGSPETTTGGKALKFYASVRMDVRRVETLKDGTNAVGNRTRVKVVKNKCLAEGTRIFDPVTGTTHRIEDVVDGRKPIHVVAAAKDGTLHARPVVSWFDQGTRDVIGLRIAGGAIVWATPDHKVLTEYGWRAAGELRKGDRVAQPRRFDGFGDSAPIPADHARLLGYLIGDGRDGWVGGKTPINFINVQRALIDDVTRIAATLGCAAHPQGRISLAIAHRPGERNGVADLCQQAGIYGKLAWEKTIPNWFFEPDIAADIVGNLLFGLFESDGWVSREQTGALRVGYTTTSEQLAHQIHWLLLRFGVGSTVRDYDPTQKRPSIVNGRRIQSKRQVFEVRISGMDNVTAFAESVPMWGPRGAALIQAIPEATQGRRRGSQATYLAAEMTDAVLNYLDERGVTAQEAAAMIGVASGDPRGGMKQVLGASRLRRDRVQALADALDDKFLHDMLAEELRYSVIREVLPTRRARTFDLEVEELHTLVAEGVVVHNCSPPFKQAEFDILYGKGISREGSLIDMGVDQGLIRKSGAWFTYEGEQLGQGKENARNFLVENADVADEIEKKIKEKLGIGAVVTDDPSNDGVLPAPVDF

[1] = target: T2, Tyrosine-protein kinase receptor TYRO3 (Homo sapiens, UniProt Q06418); assay type: functional;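 also: TYRO3 value obtained as one member of a kinome-wide profiling panel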
T2 sequence (Q06418 whole entry): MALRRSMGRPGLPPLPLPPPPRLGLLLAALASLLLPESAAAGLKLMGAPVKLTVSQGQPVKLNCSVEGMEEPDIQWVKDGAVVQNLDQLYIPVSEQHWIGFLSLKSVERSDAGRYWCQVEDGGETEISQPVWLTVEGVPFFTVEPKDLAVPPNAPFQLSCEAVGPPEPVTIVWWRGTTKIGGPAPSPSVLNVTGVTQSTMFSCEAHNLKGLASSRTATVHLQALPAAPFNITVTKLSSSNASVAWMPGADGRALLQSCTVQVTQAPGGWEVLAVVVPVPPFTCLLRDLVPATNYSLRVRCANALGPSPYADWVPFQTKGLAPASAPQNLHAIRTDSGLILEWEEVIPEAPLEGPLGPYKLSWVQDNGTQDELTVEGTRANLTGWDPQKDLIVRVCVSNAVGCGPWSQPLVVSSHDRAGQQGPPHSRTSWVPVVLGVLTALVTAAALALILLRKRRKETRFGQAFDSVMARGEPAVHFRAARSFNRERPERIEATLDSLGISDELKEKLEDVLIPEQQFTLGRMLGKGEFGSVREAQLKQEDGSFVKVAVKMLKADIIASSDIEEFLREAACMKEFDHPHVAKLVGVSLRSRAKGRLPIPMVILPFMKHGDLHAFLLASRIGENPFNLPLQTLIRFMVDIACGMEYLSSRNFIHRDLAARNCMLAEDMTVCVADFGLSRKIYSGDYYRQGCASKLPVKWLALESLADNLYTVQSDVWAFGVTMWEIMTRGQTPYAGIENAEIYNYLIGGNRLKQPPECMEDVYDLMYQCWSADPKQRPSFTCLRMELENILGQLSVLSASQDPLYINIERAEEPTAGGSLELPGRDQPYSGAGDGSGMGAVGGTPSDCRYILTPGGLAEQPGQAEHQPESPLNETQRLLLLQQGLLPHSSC

[2] = target: T3, Serine/threonine-protein kinase D3 (Homo sapiens, UniProt O94806); assay type: functional;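 also: determined within a kinase panel screen, with PRKCN as the panel member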
T3 sequence (O94806 whole entry): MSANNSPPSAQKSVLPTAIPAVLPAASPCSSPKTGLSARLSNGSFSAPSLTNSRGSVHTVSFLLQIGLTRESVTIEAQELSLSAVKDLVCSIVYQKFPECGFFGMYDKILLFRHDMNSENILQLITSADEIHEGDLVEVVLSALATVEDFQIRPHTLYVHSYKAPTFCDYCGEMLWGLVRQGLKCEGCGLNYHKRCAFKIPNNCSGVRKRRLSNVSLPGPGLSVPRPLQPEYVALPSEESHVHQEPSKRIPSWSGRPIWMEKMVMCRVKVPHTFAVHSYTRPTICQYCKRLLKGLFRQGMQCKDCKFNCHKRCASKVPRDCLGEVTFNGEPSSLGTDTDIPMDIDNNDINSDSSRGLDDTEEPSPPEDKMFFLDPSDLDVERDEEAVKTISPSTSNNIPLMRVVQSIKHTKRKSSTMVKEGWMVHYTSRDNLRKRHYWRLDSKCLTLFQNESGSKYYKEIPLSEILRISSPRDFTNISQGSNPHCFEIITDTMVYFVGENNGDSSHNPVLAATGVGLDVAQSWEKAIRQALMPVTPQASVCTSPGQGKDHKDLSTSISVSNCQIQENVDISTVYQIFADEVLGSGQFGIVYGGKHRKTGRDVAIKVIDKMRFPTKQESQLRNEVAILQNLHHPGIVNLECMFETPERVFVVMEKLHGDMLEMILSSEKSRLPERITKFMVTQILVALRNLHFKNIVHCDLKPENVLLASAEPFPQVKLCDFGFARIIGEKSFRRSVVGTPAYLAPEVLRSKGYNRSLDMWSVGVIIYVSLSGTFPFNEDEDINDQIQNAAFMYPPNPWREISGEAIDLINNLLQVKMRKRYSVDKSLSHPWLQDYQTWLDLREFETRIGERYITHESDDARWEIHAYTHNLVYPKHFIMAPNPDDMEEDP

Aurora kinase B = Aurora kinase B (Homo sapiens, UniProt Q96GD4); assay type: functional
Chain of Aurora kinase B (Q96GD4 whole entry): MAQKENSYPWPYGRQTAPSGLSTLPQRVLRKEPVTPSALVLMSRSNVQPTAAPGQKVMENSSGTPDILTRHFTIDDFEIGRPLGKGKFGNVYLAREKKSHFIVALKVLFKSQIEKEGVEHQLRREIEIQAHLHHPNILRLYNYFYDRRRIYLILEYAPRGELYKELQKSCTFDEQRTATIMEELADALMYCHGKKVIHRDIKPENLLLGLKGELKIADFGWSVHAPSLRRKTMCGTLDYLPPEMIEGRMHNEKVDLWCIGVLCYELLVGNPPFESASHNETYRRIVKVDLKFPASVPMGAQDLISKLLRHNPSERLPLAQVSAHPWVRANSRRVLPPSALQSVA

[3] = target: Dual specificity tyrosine-phosphorylation-regulated kinase 1A (Homo sapiens, UniProt Q13627); assay type: functional;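 also: measured against DYRK1A as one member of a broad kinome profiling panel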

Compound	EC50 (Streptococcus)	EC50 (Protein RecA)	Ki [1]	Ki [2]	Ki (Aurora kinase B)	Ki [3]
O=C1/C(=C\c2cccc(O)c2O)SC(=S)N1Cc1ccccc1	6240 nM (active)	1950 nM (active)				
CC(C)(C)c1cc[n+](C2=C([N-]S(=O)(=O)c3cccs3)C(=O)c3ccccc3C2=O)cc1	7200 nM (active)	950 nM (active)				
COc1c(-c2nc3ccccc3[nH]2)c(O)cc2oc(C)cc(=O)c12			316 nM (active)	794 nM (active)	794 nM (active)	200 nM (active)
COC(=O)c1c(N)nc2ccccn12			25100 nM (active)	50100 nM (active)	15800 nM (active)	39800 nM (active)
CCc1ccc(S(=O)(=O)/N=C2\C=C(Nc3ccc(O)cc3)C(=O)c3ccccc32)cc1	2160 nM (active)	306 nM (active)				
Cc1cc([N+](=O)[O-])cc(/C=N\NC(=O)C2COc3ccccc3O2)c1O (centres undefined)	2790 nM (active)					
Cc1ccc(F)c(NC(=O)Nc2ccc(-c3cccc4[nH]nc(N)c34)cc2)c1 [LINIFANIB]			> 3160 nM (inactive)	> 3980 nM (inactive)	79.4 nM (active)	> 2000 nM (inactive)

Source: ChEMBL document CHEMBL1201862, “PubChem BioAssay data set” (2004)
